In patent US10219516B2, “Molecules having pesticidal utility, and intermediates, compositions, and processes, related thereto” (priority 2015, dated 2019):
Read-outs that look alike come from different tables or passages of the source.

Tests used:
Assay type in all cases: in vivo
[1] = tested on: Yellow Fever Mosquito (Aedes aegypti, AEDSAE); assay: Bioassay on Yellow Fever Mosquito (YFM), 96-well plate larval assay; settings: for YFM rating: Yellow Fever Mosquito, 96-well plate larval assay; for YFM (Biological Results, rating): Species YFM (Yellow Fever Mosquito)
Procedure, shortened: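 Each well was scored for mortality after 3 days at room temperature under a non-evaporative lid. Test molecules came from DMSO masters (4000 ppm stock) diluted with water/acetone 90:10 and dispensed into six replicate plates, which were then infested with roughly 1-day-old larvae in liver-powder water.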

[2] = tested on: Cabbage Looper (Trichoplusia ni, TRIPNI); assay: Bioassay on Cabbage Looper (CL), 128-well diet tray assay; settings: Trichoplusia ni
Procedure, shortened: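 Diet-incorporation-free surface assay: 50 μg/cm^2 compound in acetone-water (90:10), dried on diet; 1–5 2nd-instar larvae/well; 8 wells; vented cover; 25° C., 14:10 L:D, 5–7 d; % mortality averaged over wells.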

[3] = tested on: Beet Armyworm (Spodoptera exigua, LAPHEG); assay: Bioassay on Beet Armyworm (BAW), 128-well diet tray assay
Procedure, shortened: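 Second-instar larvae, one to five per well, placed on artificial diet surface-treated with 50 μg/cm^2 compound applied in 90:10 acetone-water and dried. Held 5–7 days at 25° C., 14:10 light-dark. Percent mortality recorded per well and averaged over eight wells.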

[4] = Cabbage Looper, 128-well diet tray assay, read-out: CL rating
[5] = Beet Armyworm, 128-well diet tray assay, read-out: BAW rating
[6] = Species CL (Cabbage Looper), read-out: CL (Biological Results, rating)
[7] = Species BAW (Beet Armyworm), read-out: BAW (Biological Results, rating)

In the case of Cc1ccc2c(N)nn(C(=O)c3cc(NC(=O)[C@H]4[C@H](c5cc(Cl)cc(Cl)c5)C4(Cl)Cl)ccc3Cl)c2c1 (relative stereo) [F477, (trans)-N-(3-(3-Amino-6-methyl-1H-indazole-1-carbonyl)-4-chlorophenyl)-2,2-dichloro-3-(3,5-dichlorophenyl)cyclopropane-1-carboxamide], the YFM rating [1] is reported as “A (80-100)”, the pest or weed control at 50 µg/cm2 [2, 4] is reported as 50 to 100% and the pest or weed control at 50 µg/cm2 [3, 5] is reported as 50 to 100%.
With Cc1cc(N)ccc1NC(=O)c1cccc(NC(=O)[C@H]2[C@H](c3ccc(Cl)c(Cl)c3)C2(Cl)Cl)c1 (relative stereo) [F265, trans-N-(4-Amino-2-methylphenyl)-3-(2,2-dichloro-3-(3,4-dichlorophenyl)cyclopropane-1-carboxamido)benzamide] the “YFM (Biological Results, rating)” value [1] was “A (80-100)”, the pest or weed control at 50 µg/cm2 [2, 6] was 50 to 100% and the pest or weed control at 50 µg/cm2 [3, 7] was 50 to 100%.
O=C(Nc1ccc(F)cc1)c1cc(NC(=O)[C@H]2[C@H](c3ccc(C(F)(F)F)cc3)C2(Cl)Cl)ccc1Cl (relative stereo) [F81, trans-2-Chloro-5-(2,2-dichloro-3-(4-(trifluoromethyl)phenyl)cyclopropane-1-carboxamido)-N-(4-fluorophenyl)benzamide] was tested, and the “YFM (Biological Results, rating)” value [1] was “A (80-100)”, the pest or weed control at 50 µg/cm2 [2, 6] was 50 to 100% and the pest or weed control at 50 µg/cm2 [3, 7] was 50 to 100%.
In the case of CC(=O)Nc1ccc(NC(=O)c2cc(NC(=O)[C@H]3[C@H](c4cc(Cl)cc(Cl)c4)C3(Cl)Cl)ccc2Cl)c(C)c1 (relative stereo) [PF158, trans-N-(4-Acetamido-2-methylphenyl)-2-chloro-5-(2,2-dichloro-3-(3,5-dichlorophenyl)cyclopropane-1-carboxamido)benzamide], the YFM rating [1] is reported as “A (80-100)”, the pest or weed control at 50 µg/cm2 [2, 4] is reported as 50 to 100% and the pest or weed control at 50 µg/cm2 [3, 5] is reported as 50 to 100%.
In the case of CC(=O)Nc1ccc(NC(=O)c2cc(NC(=O)[C@H]3[C@H](c4ccc(F)c(Cl)c4)C3(Cl)Cl)ccc2Cl)cc1 (relative stereo) [F260, trans-N-(4-Acetamidophenyl)-2-chloro-5-(2,2-dichloro-3-(3-chloro-4-fluorophenyl)cyclopropane-1-carboxamido)benzamide], the “YFM (Biological Results, rating)” value [1] is reported as “A (80-100)”, the pest or weed control at 50 µg/cm2 [2, 6] is reported as 50 to 100% and the pest or weed control at 50 µg/cm2 [3, 7] is reported as 50 to 100%.
With COC(=O)C(O)(c1ccc(NC(=O)c2cc(NC(=O)[C@H]3[C@H](c4cc(Cl)cc(Cl)c4)C3(Cl)Cl)ccc2Cl)c(C)c1)C(F)(F)F (relative stereo) [F257, Methyl 2-(4-(2-chloro-5-(trans)-(2,2-dichloro-3-(3,5-dichlorophenyl)cyclopropane-1-carboxamido)benzamido)-3-methylphenyl)-3,3,3-trifluoro-2-hydroxypropanoate] the “YFM (Biological Results, rating)” value [1] was “A (80-100)”, the pest or weed control at 50 µg/cm2 [2, 6] was 50 to 100% and the pest or weed control at 50 µg/cm2 [3, 7] was 50 to 100%.
In the case of O=C(Nc1ccc(F)cc1)c1cc(NC(=O)[C@@H]2[C@@H](c3ccc(Cl)c(Cl)c3)C2(Cl)Cl)ccc1Cl [F208, 2-Chloro-5-((1S,3S)-2,2-dichloro-3-(3,4-dichlorophenyl)cyclopropane-1-carboxamido)-N-(4-fluorophenyl)benzamide], the “YFM (Biological Results, rating)” value [1] is reported as “A (80-100)”, the pest or weed control at 50 µg/cm2 [2, 6] is reported as 50 to 100% and the pest or weed control at 50 µg/cm2 [3, 7] is reported as 50 to 100%.
In the case of COc1c(Cl)cc([C@H]2[C@H](C(=O)Nc3ccc(Cl)c(C(=O)Nc4ccc(F)cc4F)c3)C2(Cl)Cl)cc1Cl (relative stereo) [F180, trans-2-Chloro-5-(2,2-dichloro-3-(3,5-dichloro-4-methoxyphenyl)cyclopropane-1-carboxamido)-N-(2,4-difluorophenyl)benzamide], the “YFM (Biological Results, rating)” value [1] is reported as “A (80-100)”, the pest or weed control at 50 µg/cm2 [2, 6] is reported as 50 to 100% and the pest or weed control at 50 µg/cm2 [3, 7] is reported as 50 to 100%.
With O=C(Nc1nc2ccccc2o1)c1cc(NC(=O)C2C(c3cc(Cl)cc(Cl)c3)C2(Cl)Cl)ccc1Cl (stereo not drawn) [F447, N-(Benzo[d]oxazol-2-yl)-2-chloro-5-(trans)-2,2-dichloro-3-(3,5-dichlorophenyl)cyclopropane-1-carboxamido)benzamide] the YFM rating [1] was “A (80-100)”, the pest or weed control at 50 µg/cm2 [2, 4] was 50 to 100% and the pest or weed control at 50 µg/cm2 [3, 5] was 50 to 100%.
In the case of Cc1cc(N)ccc1NC(=O)c1cc(NC(=O)[C@H]2[C@H](c3cc(Cl)cc(Cl)c3)C2(Cl)Cl)ccc1Cl (relative stereo) [F195, trans-N-(4-Amino-2-methylphenyl)-2-chloro-5-(2,2-dichloro-3-(3,5-dichlorophenyl)cyclopropane-1-carboxamido)benzamide], the “YFM (Biological Results, rating)” value [1] is reported as “A (80-100)”, the pest or weed control at 50 µg/cm2 [2, 6] is reported as 50 to 100% and the pest or weed control at 50 µg/cm2 [3, 7] is reported as 50 to 100%.
With Cc1cc(N)ccc1NC(=O)c1cc(NC(=O)[C@H]2[C@H](c3ccc(Cl)c(Cl)c3)C2(Cl)Cl)ccc1Cl [F285, N-(4-Amino-2-methylphenyl)-2-chloro-5-((1R,3R)-2,2-dichloro-3-(3,4-dichlorophenyl)cyclopropane-1-carboxamido)benzamide] the “YFM (Biological Results, rating)” value [1] was “A (80-100)”, the pest or weed control at 50 µg/cm2 [2, 6] was 50 to 100% and the pest or weed control at 50 µg/cm2 [3, 7] was 50 to 100%.
In the case of CC(C)(C)c1cc2cc(NC(=O)c3cc(NC(=O)[C@H]4[C@H](c5cc(Cl)cc(Cl)c5)C4(Cl)Cl)ccc3Cl)ccc2[nH]1 (relative stereo) [F486, N-(2-(tert-Butyl)-1H-indol-5-yl)-2-chloro-5-(trans)-(2,2-dichloro-3-(3,5-dichlorophenyl)cyclopropane-1-carboxamido)benzamide], the YFM rating [1] is reported as “A (80-100)”, the pest or weed control at 50 µg/cm2 [2, 4] is reported as 50 to 100% and the pest or weed control at 50 µg/cm2 [3, 5] is reported as 50 to 100%.
With O=C(Nc1ccc([N+](=O)[O-])cc1F)c1cc(NC(=O)[C@H]2[C@H](c3cc(Cl)cc(Cl)c3)C2(Cl)Cl)ccc1Cl (relative stereo) [PF74, trans-2-Chloro-5-(2,2-dichloro-3-(3,5-dichlorophenyl)cyclopropane-1-carboxamido)-N-(2-fluoro-4-nitrophenyl)benzamide] the YFM rating [1] was “A (80-100)”, the pest or weed control at 50 µg/cm2 [2, 4] was 50 to 100% and the pest or weed control at 50 µg/cm2 [3, 5] was 50 to 100%.
For N#Cc1ccc(NC(=O)c2cc(NC(=O)[C@H]3[C@H](c4cc(Cl)cc(Cl)c4)C3(Cl)Cl)ccc2Cl)cc1F (relative stereo) [F233, 2-Chloro-N-(4-cyano-3-fluorophenyl)-5-(trans-2,2-dichloro-3-(3,5-dichlorophenyl)cyclopropane-1-carboxamido)benzamide], the “YFM (Biological Results, rating)” value [1] was “A (80-100)”, the pest or weed control at 50 µg/cm2 [2, 6] was 50 to 100% and the pest or weed control at 50 µg/cm2 [3, 7] was 50 to 100%.
For O=C(Nc1ccc(F)cc1F)c1cc(NC(=O)[C@H]2[C@H](c3cc(Cl)c(Cl)c(Cl)c3)C2(Cl)Cl)ccc1Cl [F281, 2-Chloro-5-((1R,3R)-2,2-dichloro-3-(3,4,5-trichlorophenyl)cyclopropane-1-carboxamido)-N-(2,4-difluorophenyl)benzamide], the “YFM (Biological Results, rating)” value [1] was “A (80-100)”, the pest or weed control at 50 µg/cm2 [2, 6] was 50 to 100% and the pest or weed control at 50 µg/cm2 [3, 7] was 50 to 100%.
C=C(F)c1cc(NC(=O)c2cc(NC(=O)[C@H]3[C@H](c4cc(Cl)cc(Cl)c4)C3(Cl)Cl)ccc2Cl)cnc1F (relative stereo) [F400, 2-Chloro-5-(trans-2,2-dichloro-3-(3,5-dichlorophenyl)cyclopropane-1-carboxamido)-N-(6-fluoro-5-(1-fluorovinyl)pyridin-3-yl)benzamide] was tested, and the YFM rating [1] was “A (80-100)”, the pest or weed control at 50 µg/cm2 [2, 4] was 50 to 100% and the pest or weed control at 50 µg/cm2 [3, 5] was 50 to 100%.
For Nc1c(F)ccc(NC(=O)c2cc(NC(=O)[C@H]3[C@H](c4cccc(C(F)(F)F)c4)C3(Cl)Cl)ccc2Cl)c1F (relative stereo) [F341, trans-N-(3-Amino-2,4-difluorophenyl)-2-chloro-5-(2,2-dichloro-3-(3-(trifluoromethyl)phenyl)cyclopropane-1-carboxamido)benzamide], the “YFM (Biological Results, rating)” value [1] was “A (80-100)”, the pest or weed control at 50 µg/cm2 [2, 6] was 50 to 100% and the pest or weed control at 50 µg/cm2 [3, 7] was 50 to 100%.
In the case of Nc1ccc(NC(=O)c2cc(NC(=O)[C@H]3[C@H](c4cc(Cl)cc(Cl)c4)C3(Cl)Cl)ccc2Cl)c(F)c1 (relative stereo) [F175, trans-N-(4-amino-2-fluorophenyl)-2-chloro-5-(2,2-dichloro-3-(3,5-dichlorophenyl)cyclopropane-1-carboxamido)benzamide], the “YFM (Biological Results, rating)” value [1] is reported as “A (80-100)”, the pest or weed control at 50 µg/cm2 [2, 6] is reported as 50 to 100% and the pest or weed control at 50 µg/cm2 [3, 7] is reported as 50 to 100%.
O=C(Nc1cc(F)cc([N+](=O)[O-])c1)c1cc(NC(=O)[C@H]2[C@H](c3cc(Cl)c(Cl)c(Cl)c3)C2(Cl)Cl)ccc1Cl [F417, 2-Chloro-5-((1R,3R)-2,2-dichloro-3-(3,4,5-trichlorophenyl)cyclopropane-1-carboxamido)-N-(3-fluoro-5-nitrophenyl)benzamide] was tested, and the YFM rating [1] was “A (80-100)”, the pest or weed control at 50 µg/cm2 [2, 4] was 50 to 100% and the pest or weed control at 50 µg/cm2 [3, 5] was 50 to 100%.
For O=C(Nc1ccc(-n2cccn2)cc1)c1cc(NC(=O)[C@H]2[C@H](c3cc(Cl)cc(Cl)c3)C2(Cl)Cl)ccc1Cl (relative stereo) [F440, trans-N-(4-(1H-Pyrazol-1-yl)phenyl)-2-chloro-5-(2,2-dichloro-3-(3,5-dichlorophenyl)cyclopropanecarboxamido)benzamide], the YFM rating [1] was “A (80-100)”, the pest or weed control at 50 µg/cm2 [2, 4] was 50 to 100% and the pest or weed control at 50 µg/cm2 [3, 5] was 50 to 100%.
In the case of CN(C(=O)c1cc(NC(=O)[C@H]2[C@H](c3ccc(Br)c(Cl)c3)C2(Cl)Cl)ccc1Cl)c1ccc(F)cc1 (relative stereo) [F307, 5-(trans-3-(4-Bromo-3-chlorophenyl)-2,2-dichlorocyclopropane-1-carboxamido)-2-chloro-N-(4-fluorophenyl)-N-methylbenzamide], the “YFM (Biological Results, rating)” value [1] is reported as “A (80-100)”, the pest or weed control at 50 µg/cm2 [2, 6] is reported as 50 to 100% and the pest or weed control at 50 µg/cm2 [3, 7] is reported as 50 to 100%.
